Data as given in BigSolDB 2.1.

Clc1ccc2c(c1)Nc1ccccc1S2
solubility (mole fraction)
Conditions | in 2-butanone | in acetone | in acetonitrile | in ethanol | in ethyl acetate | in isopropanol | in methanol | in n-butanol | in n-propanol
283.15 K | 0.0337 | 0.0268 | 0.00354 | 0.00431 | 0.0156 | 0.0038 | 0.00465 | 0.00328 | 0.0041
285.65 K | 0.0356 | 0.0281 | 0.00378 | 0.00446 | 0.0173 | 0.00397 | 0.00483 | 0.00344 | 0.00426
288.15 K | 0.0378 | 0.03 | 0.00406 | 0.00465 | 0.0194 | 0.00415 | 0.00502 | 0.00361 | 0.00446
290.65 K | 0.0402 | 0.0317 | 0.00435 | 0.00486 | 0.0216 | 0.00433 | 0.00525 | 0.00381 | 0.00466
293.15 K | 0.0427 | 0.0336 | 0.00467 | 0.00505 | 0.024 | 0.00454 | 0.00545 | 0.00401 | 0.00487
295.65 K | 0.0455 | 0.0356 | 0.00498 | 0.00525 | 0.0265 | 0.00473 | 0.0057 | 0.00422 | 0.00509
298.15 K | 0.0484 | 0.0378 | 0.00532 | 0.00546 | 0.0291 | 0.00493 | 0.00594 | 0.00445 | 0.0053
300.65 K | 0.0513 | 0.0399 | 0.00564 | 0.00569 | 0.0323 | 0.00513 | 0.0062 | 0.00468 | 0.00552
303.15 K | 0.0546 | 0.0421 | 0.006 | 0.00592 | 0.0357 | 0.00536 | 0.00647 | 0.00492 | 0.00575
305.65 K | 0.0578 | 0.0443 | 0.00633 | 0.00617 | 0.0397 | 0.00556 | 0.00673 | 0.00518 | 0.006
308.15 K | 0.0612 | 0.0469 | 0.00672 | 0.00641 | 0.0435 | 0.0058 | 0.00701 | 0.00543 | 0.00622
310.65 K | 0.0646 | 0.0493 | 0.0071 | 0.00667 | 0.0484 | 0.00605 | 0.00728 | 0.0057 | 0.00649
313.15 K | 0.0683 | 0.0518 | 0.00756 | 0.00695 | 0.0528 | 0.0063 | 0.00758 | 0.00596 | 0.00678
315.65 K | 0.0727 | 0.0544 | 0.00795 | 0.00723 | 0.0575 | 0.00657 | 0.00786 | 0.00624 | 0.00705
318.15 K | 0.0771 | 0.0575 | 0.00837 | 0.00756 | 0.0625 | 0.00687 | 0.00819 | 0.00653 | 0.00737
